US8772498B2, “Alkylamine-substituted dicyanopyridine and amino acid ester prodrugs thereof” (Bayer Intellectual Property GmbH, priority 2009, dated 2014)

What was measured:
adenosine A1 receptor = molecular target: T1, adenosine A1 receptor (Homo sapiens, UniProt P30542); assay: Indirect determination of adenosine agonism by gene expression (luciferase), A1 cells; type: cell-based; conditions: CHO cells, luciferase readout, 1 μM forskolin
T1 construct: expressed in transfected cells; host or cells: CHO (Chinese Hamster Ovary)
T1 sequence (P30542 1-326): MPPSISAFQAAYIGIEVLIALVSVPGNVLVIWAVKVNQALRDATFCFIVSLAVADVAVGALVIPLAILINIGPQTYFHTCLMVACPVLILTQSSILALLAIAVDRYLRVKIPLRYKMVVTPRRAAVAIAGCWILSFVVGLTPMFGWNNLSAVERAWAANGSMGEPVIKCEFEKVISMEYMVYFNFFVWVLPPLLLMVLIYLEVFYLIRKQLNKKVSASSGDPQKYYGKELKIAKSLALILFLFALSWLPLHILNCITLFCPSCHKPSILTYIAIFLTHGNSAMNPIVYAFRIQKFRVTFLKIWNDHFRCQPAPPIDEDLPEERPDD
Source text: (§1) B-1. Indirect Determination of the Adenosine Agonism by Way of Gene Expression
(§2) Cells of the CHO (Chinese Hamster Ovary) permanent cell line are transfected stably with the cDNA for the adenosine receptor subtypes A1, A2a and A2b. The adenosine A1 receptors are coupled to the adenylate cyclase by way of G, proteins, while the adenosine A2a and A2b receptors are coupled by way of Gs proteins. In correspondence with this, the formation of cAMP in the cell is inhibited or stimulated, respectively. After that, expression of the luciferase is modulated by way of a cAMP-dependent promoter. The luciferase test is optimized, with the aim of high sensitivity and reproducibility, low variance and good suitability for implementation on a robot system, by varying several test parameters, such as cell density, duration of the growth phase and the test incubation, forskolin concentration and medium composition. The following test protocol is used for pharmacologically characterizing cells and for the robot-assisted substance screening:
(§3) The stock cultures are grown, at 37° C. and under 5% CO2, in DMEM/F12 medium containing 10% FCS (fetal calf serum) and in each case split 1:10 after 2-3 days. The test cultures are seeded in 384-well plates with 2000 cells per well and grown at 37° C. for approx. 48 hours. The medium is then replaced with a physiological sodium chloride solution (130 mM sodium chloride, 5 mM potassium chloride, 2 mM calcium chloride, 20 mM HEPES, 1 mM magnesium chloride hexahydrate, 5 mM sodium bicarbonate, pH 7.4). The substances to be tested, which are dissolved in DMSO, are pipetted into the test cultures (maximum final concentration of DMSO in the test mixture: 0.5%) in a dilution series of from 5×10^−11 M to 3×10^−6 M (final concentration). 10 minutes later, forskolin is added to the A1 cells and all the cultures are subsequently incubated at 37° C. for four hours. After that, 35 μl of a solution which is composed of 50% lysis reagent (30 mM disodium hydrogenphosphate, 10% glycerol, 3% TritonX100, 25 mM TrisHCl, 2 mM dithiotreitol (DTT), pH 7.8) and 50% luciferase substrate solution (2.5 mM ATP, 0.5 mM luciferin, 0.1 mM coenzyme A, 10 mM tricine, 1.35 mM magnesium sulfate, 15 mM DTT, pH 7.8) are added to the test cultures, which are shaken for approx. 1 minute and the luciferase activity is measured using a camera system. The ECK values are determined, i.e., the concentrations at which 50% of the luciferase answer is inhibited in the case of the A1 cell, and, respectively, 50% of the maximum stimulation with the corresponding substance is achieved in the case of the A2b and A2a cells.
(§4) Table 1 below lists the ECK values of representative working examples for the receptor stimulation on adenosine A1, A2a and A2b receptor subtypes: […]

adenosine A2a receptor = molecular target: T2, adenosine A2a receptor (Homo sapiens, UniProt P29274); assay: Indirect determination of adenosine agonism by gene expression (luciferase), A2a cells; type: cell-based; conditions: CHO cells, luciferase readout
T2 construct: expressed in transfected cells; host or cells: CHO (Chinese Hamster Ovary)
Source text: as §1, §2, §3, §4

adenosine A2b receptor = molecular target: T3, adenosine A2b receptor (Homo sapiens, UniProt P29275); assay: Indirect determination of adenosine agonism by gene expression (luciferase), A2b cells; type: cell-based; conditions: CHO cells, luciferase readout
T3 construct: expressed in transfected cells; host or cells: CHO (Chinese Hamster Ovary)
T3 sequence (P29275 1-332): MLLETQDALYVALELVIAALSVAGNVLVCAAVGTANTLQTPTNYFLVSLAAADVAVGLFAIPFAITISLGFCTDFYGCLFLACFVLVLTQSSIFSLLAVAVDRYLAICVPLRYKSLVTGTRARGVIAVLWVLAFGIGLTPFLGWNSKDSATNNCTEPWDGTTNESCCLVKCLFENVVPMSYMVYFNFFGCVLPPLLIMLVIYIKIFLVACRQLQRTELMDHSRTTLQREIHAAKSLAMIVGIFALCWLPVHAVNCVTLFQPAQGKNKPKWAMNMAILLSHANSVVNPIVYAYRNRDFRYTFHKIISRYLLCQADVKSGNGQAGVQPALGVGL
Source text: as §1, §2, §3, §4

mice (strain: CD1) = assay: Locomotor action in the treadmill experiment; type: in vivo; conditions: oral
Source text: B-7. Test of Adenosine A1 Receptor Agonists on Locomotor Action in the Treadmill Experiment To determine the action of adenosine A1 receptor agonists on locomotor function, the running behavior of mice (strain: CD1) in treadmills (M. Weber et al., Psychopharmacology 2008, in print) is examined. To get the mice accustomed to voluntary use of the treadmill, 2-3 weeks prior to the start of the experiment the animals are isolated in cages with a treadmill and trained. 2 weeks prior to the start of the experiment, the movements of the mice in the treadmill are recorded by a photo cell using a computer, and various running parameters such as, for example, the distance run in a day, the individual distances covered, and also their distribution over the day are determined. According to their natural running behavior, the animals are randomized into groups (8-12 animals) (control group and 1—a plurality of substance groups). After the initial 2-week phase, the animals are treated orally with the substances to be tested. Here, single doses or else increasing dosages (for example 0.3-1-3-10-30 mg/kg) are administered. The substances are tested in two independent experiments. Between 2 experiments, there are at least 3 days where the animals are not administered any substances. The running behavior of the animals is observed and recorded for 24 hours after administration. Evaluation of the running intervals and the total distance covered takes place over a period of several hours during the main activity period of the mice. Effects are stated in percent of the control.

[1] = Determination of the solubility in 5% strength aqueous dextrose solution; type: physicochemical; conditions: result in words
Experimental: B-8. Determination of Solubility, Stability and Liberation Behavior a) Determination of the Solubility:
The test substance is suspended in 5% strength aqueous dextrose solution. This suspension is shaken at room temperature for 24 h. After ultracentrifugation at 224 000 g for 30 min, the supernatant is diluted with DMSO and analyzed by HPLC. A two-point calibration plot of the test compound in DMSO is used for quantification.
Agilent 1100 with DAD (G1315A), quat. pump (G1311A), autosampler CTC HTS PAL, degasser (G1322A) and column thermostat (G1316A); column: Phenomenex Gemini C18, 5 μm, 50 mm×2 mm; temperature: 40° C.; eluent A: water/phosphoric acid pH 2; eluent B: acetonitrile; flow rate: 0.7 ml/min; gradient: 0-0.5 min 85% A, 15% B; ramp: 0.5-3 min 10% A, 90% B; 3-3.5 min 10% A, 90% B; ramp: 3.5-4 min 85% A, 15% B; 4-5 min 85% A, 15% B.
Agilent 1100 with DAD (G1315A), quat. pump (G1311A), autosampler CTC HTS PAL, degasser (G1322A) and column thermostat (G1316A); column: VDSoptilab Kromasil 100 C18, 3.5 μm, 60 mm×2.1 mm; temperature: 30° C.; eluent A: water+5 ml perchloric acid/I; eluent B: acetonitrile; flow rate: 0.75 ml/min; gradient: 0-0.5 min 98% A, 2% B; ramp: 0.5-4.5 min 10% A, 90% B; 4.5-6 min 10% A, 90% B; ramp: 6.5-6.7 min 98% A, 2% B; 6.7-7.5 min 98% A, 2% B.

[2] = system: spontaneously hypertensive rats; assay: Measurement of blood pressure and heart rate on awake rats (telemetry); type: in vivo; conditions: maximum reduction in heart rate, oral administration of 3 mg/kg, awake SH rats
Experimental: B-5. Measurement of Blood Pressure and Heart Rate
Awake spontaneously hypertensive rats (SH-Ratten) carrying an internal transmitter capable of measuring permanently both blood pressure and heart rate (telemetric monitoring of hemodynamic parameters) and sitting in a cage fitted with motion sensors are orally administered test substances in various dosages. Blood pressure and heart rate and changes thereof, and also the movements and the activity of the animals are then recorded and evaluated for 24 hours.

T2 sequence (P29274 whole entry): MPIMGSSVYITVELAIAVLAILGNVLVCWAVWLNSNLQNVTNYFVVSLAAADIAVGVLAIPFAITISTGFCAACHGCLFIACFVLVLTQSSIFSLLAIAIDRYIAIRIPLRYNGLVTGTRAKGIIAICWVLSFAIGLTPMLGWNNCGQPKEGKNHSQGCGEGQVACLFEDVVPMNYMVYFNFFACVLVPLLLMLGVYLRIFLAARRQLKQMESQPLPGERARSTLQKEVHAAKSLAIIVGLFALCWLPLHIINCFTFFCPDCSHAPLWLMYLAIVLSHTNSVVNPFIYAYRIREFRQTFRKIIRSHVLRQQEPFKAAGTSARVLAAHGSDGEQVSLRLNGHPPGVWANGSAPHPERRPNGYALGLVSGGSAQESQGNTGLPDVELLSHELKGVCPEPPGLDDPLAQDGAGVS

Compound | EC50 (adenosine A1 receptor) [nM] | EC50 (adenosine A2a receptor) [nM] | EC50 (adenosine A2b receptor) [nM] | Reduction of the total distance run by 1 mg/kg (mice (strain: CD1)) [%] | Solubility of the active substance [1] | Heart rate reduction [2] [%]
COC1CCN(c2nc(SCc3csc(-c4ccc(Cl)cc4)n3)c(C#N)c(-c3ccc(OCCO)cc3)c2C#N)CC1 [Example 24, 2-({(2-(4-chlorophenyl)-1,3-thiazol-4-yl)methyl}sulfanyl)-4-(4-(2-hydroxyethoxy)phenyl)-6-(4-methoxypiperidin-1-yl)pyridine-3,5-dicarbonitrile] | 0.6 | 287 | 675 |  |  | 
N#Cc1c(SCc2csc(-c3ccc(Cl)cc3)n2)nc(N2CCCCC2)c(C#N)c1-c1ccc(OCCO)cc1 [Example 13] |  |  |  | 0 |  | 
CNc1nc(SCc2csc(-c3ccc(Cl)cc3)n2)c(C#N)c(-c2ccc(OCCO)cc2)c1C#N [Example 2, 2-({(2-(4-Chlorophenyl)-1,3-thiazol-4-yl)methyl}sulfanyl)-4-(4-(2-hydroxyethoxy)phenyl)-6-(methylamino)pyridine-3,5-dicarbonitrile] |  |  |  |  | below the detection limit | −45
N#Cc1c(SCc2csc(-c3ccc(Cl)cc3)n2)nc(N2CCC(F)(F)C2)c(C#N)c1-c1ccc(OCCO)cc1 [Example 26, 2-({(2-(4-Chlorophenyl)-1,3-thiazol-4-yl)methyl}sulfanyl)-6-(3,3-difluoropyrrolidin-1-yl)-4-(4-(2-hydroxyethoxy)phenyl)pyridine-3,5-dicarbonitrile] | 0.5 |  | 1000 |  |  | 
N#Cc1c(NC2CC2)nc(SCc2csc(-c3ccc(Cl)cc3)n2)c(C#N)c1-c1ccc(OCCO)cc1 [Example 9] | 0.7 | 281 | 231 |  |  | 
COCCN(C)c1nc(SCc2csc(-c3ccc(Cl)cc3)n2)c(C#N)c(-c2ccc(OCCO)cc2)c1C#N [Example 21, 2-({(2-(4-chlorophenyl)-1,3-thiazol-4-yl)methyl}sulfanyl)-4-(4-(2-hydroxyethoxy)phenyl)-6-((2-methoxyethyl)(methyl)amino)pyridine-3,5-dicarbonitrile] | 0.9 | 743 |  | 7.5 |  | 

More lines, main results first:

EC50 (adenosine A1 receptor) [nM] | EC50 (adenosine A2a receptor) [nM] | EC50 (adenosine A2b receptor) [nM] | Reduction of the total distance run by 1 mg/kg (mice (strain: CD1)) [%] | Solubility of the active substance [1] | Compound | Heart rate reduction [2] [%]
0.05 | 27 | 900 | 24 |  | N#Cc1c(NCCF)nc(SCc2csc(-c3ccc(Cl)cc3)n2)c(C#N)c1-c1ccc(OCCO)cc1 [Example 33, 2-({(2-(4-Chlorophenyl)-1,3-thiazol-4-yl)methyl}sulfanyl)-6-((2-fluoroethyl)amino)-4-(4-(2-hydroxyethoxy)phenyl)pyridine-3,5-dicarbonitrile] | 
0.3 | 282 | 138 |  |  | CCNc1nc(SCc2csc(-c3ccc(Cl)cc3)n2)c(C#N)c(-c2ccc(OCCO)cc2)c1C#N [Example 3, 2-({(2-(4-Chlorophenyl)-1,3-thiazol-4-yl)methyl}sulfanyl)-6-(ethylamino)-4-(4-(2-hydroxy-ethoxy)phenyl)pyridine-3,5-dicarbonitrile] | 
0.5 | 315 | 150 |  |  | CCN(C)c1nc(SCc2csc(-c3ccc(Cl)cc3)n2)c(C#N)c(-c2ccc(OCCO)cc2)c1C#N [Example 5, 2-({(2-(4-Chlorophenyl)-1,3-thiazol-4-yl)methyl}sulfanyl)-6-(ethyl(methyl)amino)-4-(4-(2-hydroxyethoxy)phenyl)pyridine-3,5-dicarbonitrile] | 
0.1 | 673 | 80 | 0 | below the detection limit | N#Cc1c(SCc2csc(-c3ccc(Cl)cc3)n2)nc(N2CCCC2)c(C#N)c1-c1ccc(OCCO)cc1 [Example 1] | −20
